Assay results from ChEMBL document CHEMBL1201862, “PubChem BioAssay data set” (2004).
Each block holds one molecule with its values, some of them ahead of it. The source made the active and inactive calls.

Assays:
Type in all cases: functional
[1] = biological target: Serine/threonine-protein kinase pim-1 (Homo sapiens, UniProt P11309)
[2] = biological target: Calcium/calmodulin-dependent protein kinase type II subunit alpha (Homo sapiens, UniProt Q9UQM7); assay: Navigating the Kinome. Panel member name: CAMK2A
[3] = biological target: Cyclin-dependent kinase 9 (Homo sapiens, UniProt P50750);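 also: value from the CDK9 entry of a kinome-spanning kinase panel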
[4] = biological target: Dual specificity tyrosine-phosphorylation-regulated kinase 1B (Homo sapiens, UniProt Q9Y463); assay: Navigating the Kinome. Panel member name: DYRK1B
[5] = biological target: Leucine-rich repeat serine/threonine-protein kinase 2 (Homo sapiens, UniProt Q5S007);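 also: value from a broad kinome-wide panel profiling study in which LRRK2 was one of the kinases tested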
[6] = biological target: Serine/threonine-protein kinase TAO1 (Homo sapiens, UniProt Q7L7X3)
[7] = biological target: Mitogen-activated protein kinase kinase kinase kinase 2 (Homo sapiens, UniProt Q12851);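 also: measured as one member of a kinome-wide kinase panel, with MAP4K2 as the panel entry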
[8] = biological target: Leukocyte tyrosine kinase receptor (Homo sapiens, UniProt P29376); assay: Navigating the Kinome. Panel member name: LTK
[9] = biological target: Dual specificity mitogen-activated protein kinase kinase 1 (Homo sapiens, UniProt Q02750); assay: Navigating the Kinome. Panel member name: MAP2K1
[10] = biological target: Serine/threonine-protein kinase D3 (Homo sapiens, UniProt O94806);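 also: determined within a kinase panel screen, with PRKCN as the panel member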
[11] = biological target: Rho-associated protein kinase 1 (Homo sapiens, UniProt Q13464);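 also: measured within a broad kinome-wide panel profiling many kinases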
[12] = biological target: BDNF/NT-3 growth factors receptor (Homo sapiens, UniProt Q16620);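 also: NTRK2 measured as one member of a broad kinome-wide kinase profiling panel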
[13] = biological target: ALK tyrosine kinase receptor (Homo sapiens, UniProt Q9UM73);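 also: ALK tested as one member of a kinase panel screen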
[14] = biological target: Vascular endothelial growth factor receptor 2 (Homo sapiens, UniProt P35968)
[15] = biological target: Mitogen-activated protein kinase 8 (Homo sapiens, UniProt P45983);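 also: value comes from one member of a kinome-wide kinase profiling panel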
[16] = biological target: Dual specificity protein kinase CLK2 (Homo sapiens, UniProt P49760)
[17] = biological target: Dual specificity mitogen-activated protein kinase kinase 2 (Homo sapiens, UniProt P36507); assay: Navigating the Kinome. Panel member name: MAP2K2
[18] = biological target: Serine/threonine-protein kinase PAK 4 (Homo sapiens, UniProt O96013);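 also: value obtained within a kinome profiling panel in which PAK4 was one of the panel members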
[19] = biological target: cAMP-dependent protein kinase catalytic subunit alpha (Homo sapiens, UniProt P17612)
[20] = biological target: Tyrosine-protein kinase ABL1 (Homo sapiens, UniProt P00519)
[21] = biological target: Glycogen synthase kinase-3 alpha (Homo sapiens, UniProt P49840);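 also: GSK3A result taken from a broad kinome-wide kinase panel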
[22] = biological target: Protein kinase C theta type (Homo sapiens, UniProt Q04759); assay: Navigating the Kinome. Panel member name: PRKCQ
[23] = biological target: Casein kinase I isoform alpha (Homo sapiens, UniProt P48729)
Activated CDC42 kinase 1 = Activated CDC42 kinase 1 (Homo sapiens, UniProt Q07912); assay: Navigating the Kinome. Panel member name: ACK1
[24] = biological target: Inhibitor of nuclear factor kappa-B kinase subunit epsilon (Homo sapiens, UniProt Q14164); assay: Navigating the Kinome. Panel member name: IKBKE
Aurora kinase B = Aurora kinase B (Homo sapiens, UniProt Q96GD4)
[25] = biological target: Platelet-derived growth factor receptor alpha (Homo sapiens, UniProt P16234); assay: Navigating the Kinome. Panel member name: PDGFRA
[26] = biological target: Macrophage-stimulating protein receptor (Homo sapiens, UniProt Q04912); assay: Navigating the Kinome. Panel member name: MST1R
[27] = biological target: Cyclin-dependent kinase 7 (Homo sapiens, UniProt P50613);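 also: value comes from a kinome-wide kinase profiling panel in which CDK7 is one member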
[28] = biological target: Fibroblast growth factor receptor 1 (Homo sapiens, UniProt P11362)
[29] = biological target: Glycogen synthase kinase-3 beta (Homo sapiens, UniProt P49841);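 also: value comes from a broad kinome profiling panel, with GSK3B as the panel member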
[30] = biological target: Proto-oncogene tyrosine-protein kinase receptor Ret (Homo sapiens, UniProt P07949);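 also: measured within a kinome-wide profiling panel, RET as the panel member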
Aurora kinase A = Aurora kinase A (Homo sapiens, UniProt O14965);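 also: value from the Navigating the Kinome kinase panel profiling, panel entry STK6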
LIM domain kinase 1 = LIM domain kinase 1 (Homo sapiens, UniProt P53667); assay: Navigating the Kinome. Panel member name: LIMK1
[31] = biological target: Tyrosine-protein kinase JAK2 (Homo sapiens, UniProt O60674);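 also: JAK2 tested as one member of a kinase panel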
[32] = biological target: Mitogen-activated protein kinase kinase kinase kinase 4 (Homo sapiens, UniProt O95819)
[33] = biological target: Death-associated protein kinase 3 (Homo sapiens, UniProt O43293);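 also: measured as one member of a kinome-wide profiling panel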
[34] = biological target: Dual specificity tyrosine-phosphorylation-regulated kinase 1A (Homo sapiens, UniProt Q13627);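 also: measured against DYRK1A as one member of a broad kinome profiling panel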
Activin receptor type-1 = Activin receptor type-1 (Homo sapiens, UniProt Q04771); assay: Navigating the Kinome. Panel member name: ACVR1
[35] = biological target: Serine/threonine-protein kinase Nek2 (Homo sapiens, UniProt P51955)
[36] = biological target: Vascular endothelial growth factor receptor 1 (Homo sapiens, UniProt P17948);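 also: measured within a kinome-wide profiling panel, FLT1 as the panel member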
[37] = biological target: Tyrosine-protein kinase receptor TYRO3 (Homo sapiens, UniProt Q06418);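 also: TYRO3 value obtained as one member of a kinome-wide profiling panel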
[38] = biological target: cAMP-dependent protein kinase catalytic subunit PRKX (Homo sapiens, UniProt P51817)
[39] = biological target: Macrophage colony-stimulating factor 1 receptor (Homo sapiens, UniProt P07333);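 also: value comes from the Navigating the Kinome screening panel, CSF1R member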
[40] = biological target: Cyclin-dependent kinase 8 (Homo sapiens, UniProt P49336); assay: Navigating the Kinome. Panel member name: CDK8
[41] = biological target: Serine/threonine-protein kinase Chk1 (Homo sapiens, UniProt O14757);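 also: measured as one member of a kinome-wide kinase profiling panel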
[42] = biological target: Hepatocyte growth factor receptor (Homo sapiens, UniProt P08581);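 also: kinase panel profiling across the kinome, with MET as the panel member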
[43] = biological target: Serine/threonine-protein kinase TBK1 (Homo sapiens, UniProt Q9UHD2); assay: Navigating the Kinome. Panel member name: TBK1
[44] = biological target: Cyclin-dependent kinase 19 (Homo sapiens, UniProt Q9BWU1); assay: Navigating the Kinome. Panel member name: CDC2L6
[45] = biological target: 5'-AMP-activated protein kinase catalytic subunit alpha-1 (Homo sapiens, UniProt Q13131)
[46] = biological target: Dual specificity protein kinase CLK4 (Homo sapiens, UniProt Q9HAZ1)
[47] = biological target: Calcium/calmodulin-dependent protein kinase type II subunit delta (Homo sapiens, UniProt Q13557)
SRSF protein kinase 1 = SRSF protein kinase 1 (Homo sapiens, UniProt Q96SB4);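 also: measured as one member of a kinome-wide kinase profiling panel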
[48] = biological target: Proto-oncogene tyrosine-protein kinase ROS (Homo sapiens, UniProt P08922);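 also: ROS1 tested as one member of a kinome-wide kinase panel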
[49] = biological target: RAC-gamma serine/threonine-protein kinase (Homo sapiens, UniProt Q9Y243)
[50] = biological target: Serine/threonine-protein kinase MRCK alpha (Homo sapiens, UniProt Q5VT25)
[51] = biological target: Receptor tyrosine-protein kinase erbB-4 (Homo sapiens, UniProt Q15303);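 also: ERBB4 member of a kinome-wide kinase profiling panel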
[52] = biological target: Calcium/calmodulin-dependent protein kinase type II subunit beta (Homo sapiens, UniProt Q13554)
[53] = biological target: Mitogen-activated protein kinase 13 (Homo sapiens, UniProt O15264)
[54] = biological target: Calcium/calmodulin-dependent protein kinase kinase 2 (Homo sapiens, UniProt Q96RR4); assay: Navigating the Kinome. Panel member name: CAMKK2
[55] = biological target: Tyrosine-protein kinase JAK3 (Homo sapiens, UniProt P52333)
[56] = biological target: Interleukin-1 receptor-associated kinase 1 (Homo sapiens, UniProt P51617);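 also: IRAK1 tested as one member of a kinome panel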
[57] = biological target: Tyrosine-protein kinase Fyn (Homo sapiens, UniProt P06241)
[58] = biological target: Serine/threonine-protein kinase pim-2 (Homo sapiens, UniProt Q9P1W9);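 also: value comes from a broad kinase panel profiling study in which PIM2 was one of the panel members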
[59] = biological target: Phosphorylase b kinase gamma catalytic chain, liver/testis isoform (Homo sapiens, UniProt P15735);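 also: PHKG2 measured as one member of a kinome-wide kinase panel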
[60] = biological target: Casein kinase I isoform gamma-1 (Homo sapiens, UniProt Q9HCP0);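 also: measured as the CSNK1G1 member of a kinome profiling panel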
[61] = biological target: Casein kinase I isoform delta (Homo sapiens, UniProt P48730);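 also: measured as one member (CSNK1D) of a kinome panel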
[62] = biological target: Testis-specific serine/threonine-protein kinase 1 (Homo sapiens, UniProt Q9BXA7)
[63] = biological target: Serine/threonine-protein kinase DCLK1 (Homo sapiens, UniProt O15075);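 also: affinity for DCLK1 (listed as DCAMKL1) measured as one member of a kinome-wide kinase profiling panel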
[64] = biological target: Serine/threonine-protein kinase 3 (Homo sapiens, UniProt Q13188);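 also: measured as one member of a kinome-wide kinase panel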
[65] = biological target: Homeodomain-interacting protein kinase 2 (Homo sapiens, UniProt Q9H2X6);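 also: measured within a kinome-wide kinase profiling panel, HIPK2 being one panel member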
[66] = biological target: Homeodomain-interacting protein kinase 4 (Homo sapiens, UniProt Q8NE63)
[67] = biological target: Testis-specific serine/threonine-protein kinase 2 (Homo sapiens, UniProt Q96PF2);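 also: part of the Navigating the Kinome panel, target entry STK22B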
[68] = biological target: Casein kinase II subunit alpha (Homo sapiens, UniProt P68400)
[69] = biological target: Interleukin-1 receptor-associated kinase 4 (Homo sapiens, UniProt Q9NWZ3)
[70] = biological target: Mitogen-activated protein kinase 1 (Homo sapiens, UniProt P28482)
Focal adhesion kinase 1 = Focal adhesion kinase 1 (Homo sapiens, UniProt Q05397);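 also: measured as one member of a kinome panel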
[71] = biological target: Melanin-concentrating hormone receptor 1 (Homo sapiens, UniProt Q99705); assay: Late-stage fluorescence-based counterscreen for antagonists of the G-protein coupled receptor 7 (GPR7): cell-based dose response assay to identify antagonists of the melanin-concentrating hormone receptor 1 (MCHR1) Set 6.
[72] = biological target: Neuropeptides B/W receptor type 1 (Homo sapiens, UniProt P48145); assay: GPR7 antagonist potency, late-stage follow-up, cell-based, fluorescence, dose response, set 6 (AID 588583)

Cyclin-dependent kinase 9, sequence (P50750 whole entry): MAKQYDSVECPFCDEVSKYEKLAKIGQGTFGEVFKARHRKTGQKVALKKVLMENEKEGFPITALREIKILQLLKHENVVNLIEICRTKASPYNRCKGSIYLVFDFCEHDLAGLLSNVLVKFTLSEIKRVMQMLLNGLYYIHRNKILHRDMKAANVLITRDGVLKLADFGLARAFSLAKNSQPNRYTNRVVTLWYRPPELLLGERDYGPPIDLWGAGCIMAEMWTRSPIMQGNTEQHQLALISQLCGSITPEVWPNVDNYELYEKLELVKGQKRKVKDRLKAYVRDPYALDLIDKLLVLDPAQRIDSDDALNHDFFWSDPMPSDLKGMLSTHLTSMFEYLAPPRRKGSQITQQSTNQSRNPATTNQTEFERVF
Cyclin-dependent kinase 7, sequence (P50613 whole entry): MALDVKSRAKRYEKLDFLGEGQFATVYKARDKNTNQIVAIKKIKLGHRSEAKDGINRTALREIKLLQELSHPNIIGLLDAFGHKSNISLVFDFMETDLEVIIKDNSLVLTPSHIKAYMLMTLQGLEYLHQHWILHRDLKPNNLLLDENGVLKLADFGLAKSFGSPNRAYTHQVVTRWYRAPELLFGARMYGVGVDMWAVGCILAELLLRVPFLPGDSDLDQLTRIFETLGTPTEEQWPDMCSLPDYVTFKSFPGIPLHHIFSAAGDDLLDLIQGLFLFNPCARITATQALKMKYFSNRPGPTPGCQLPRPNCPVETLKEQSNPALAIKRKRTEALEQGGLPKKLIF
BDNF/NT-3 growth factors receptor, sequence (Q16620 whole entry): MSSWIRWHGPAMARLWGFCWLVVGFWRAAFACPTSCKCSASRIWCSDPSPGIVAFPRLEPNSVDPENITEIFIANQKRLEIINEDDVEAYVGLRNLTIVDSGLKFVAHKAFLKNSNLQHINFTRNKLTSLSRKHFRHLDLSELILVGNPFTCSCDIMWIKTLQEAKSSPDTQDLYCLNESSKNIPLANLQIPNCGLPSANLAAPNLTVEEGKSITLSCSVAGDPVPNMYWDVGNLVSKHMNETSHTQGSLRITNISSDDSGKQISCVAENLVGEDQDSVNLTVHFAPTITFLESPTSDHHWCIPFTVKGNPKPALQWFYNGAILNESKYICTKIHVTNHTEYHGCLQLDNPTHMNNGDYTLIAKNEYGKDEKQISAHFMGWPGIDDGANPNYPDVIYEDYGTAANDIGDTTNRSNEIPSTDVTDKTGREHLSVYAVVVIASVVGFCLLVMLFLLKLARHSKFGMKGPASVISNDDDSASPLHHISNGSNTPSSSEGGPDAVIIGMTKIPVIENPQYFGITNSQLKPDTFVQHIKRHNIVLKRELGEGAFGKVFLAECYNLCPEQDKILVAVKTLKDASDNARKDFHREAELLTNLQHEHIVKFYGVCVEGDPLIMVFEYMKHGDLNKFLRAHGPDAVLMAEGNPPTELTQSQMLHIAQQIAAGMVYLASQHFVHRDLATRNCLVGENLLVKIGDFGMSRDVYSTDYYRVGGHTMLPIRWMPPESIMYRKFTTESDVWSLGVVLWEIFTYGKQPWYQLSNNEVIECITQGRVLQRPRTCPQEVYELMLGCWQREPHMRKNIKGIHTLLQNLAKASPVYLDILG
Dual specificity protein kinase CLK2, sequence (P49760 whole entry): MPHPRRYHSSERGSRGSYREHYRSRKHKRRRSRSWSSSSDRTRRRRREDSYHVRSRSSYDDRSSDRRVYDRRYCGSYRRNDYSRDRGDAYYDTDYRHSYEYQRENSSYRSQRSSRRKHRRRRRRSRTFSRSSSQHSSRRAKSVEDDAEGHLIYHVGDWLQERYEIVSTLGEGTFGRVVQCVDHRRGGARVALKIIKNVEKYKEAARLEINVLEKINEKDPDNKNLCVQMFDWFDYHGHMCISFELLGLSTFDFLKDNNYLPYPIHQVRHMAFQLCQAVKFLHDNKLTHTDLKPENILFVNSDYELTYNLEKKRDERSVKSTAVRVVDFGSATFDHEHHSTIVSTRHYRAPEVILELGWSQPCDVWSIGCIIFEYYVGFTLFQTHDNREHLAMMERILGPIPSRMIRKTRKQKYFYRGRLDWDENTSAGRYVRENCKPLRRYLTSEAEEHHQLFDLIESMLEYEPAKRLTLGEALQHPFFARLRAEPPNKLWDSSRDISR
Dual specificity mitogen-activated protein kinase kinase 1, sequence (Q02750 whole entry): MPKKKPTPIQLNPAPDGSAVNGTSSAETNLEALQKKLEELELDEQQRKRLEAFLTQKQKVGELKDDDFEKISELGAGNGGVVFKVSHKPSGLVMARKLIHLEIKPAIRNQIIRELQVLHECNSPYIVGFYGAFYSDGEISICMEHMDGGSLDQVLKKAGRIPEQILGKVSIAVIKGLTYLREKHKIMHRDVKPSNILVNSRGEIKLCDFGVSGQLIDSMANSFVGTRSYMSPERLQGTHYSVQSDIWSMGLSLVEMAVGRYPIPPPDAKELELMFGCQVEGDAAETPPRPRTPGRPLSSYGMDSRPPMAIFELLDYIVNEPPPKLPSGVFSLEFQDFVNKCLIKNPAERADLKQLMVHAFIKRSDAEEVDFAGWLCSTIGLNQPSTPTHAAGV
Glycogen synthase kinase-3 alpha, sequence (P49840 whole entry): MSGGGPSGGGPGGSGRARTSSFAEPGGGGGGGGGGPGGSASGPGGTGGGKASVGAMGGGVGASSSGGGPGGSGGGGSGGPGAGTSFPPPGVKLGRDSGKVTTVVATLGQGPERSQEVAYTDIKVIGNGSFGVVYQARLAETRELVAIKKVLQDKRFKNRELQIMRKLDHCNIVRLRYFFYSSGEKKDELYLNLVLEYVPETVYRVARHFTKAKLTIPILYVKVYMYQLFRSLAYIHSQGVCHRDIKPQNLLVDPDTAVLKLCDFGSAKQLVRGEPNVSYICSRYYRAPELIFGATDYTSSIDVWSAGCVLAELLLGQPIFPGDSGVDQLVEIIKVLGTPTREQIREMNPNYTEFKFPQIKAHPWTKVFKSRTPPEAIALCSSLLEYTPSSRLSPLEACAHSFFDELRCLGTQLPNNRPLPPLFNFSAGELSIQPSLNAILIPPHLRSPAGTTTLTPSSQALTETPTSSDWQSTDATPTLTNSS
Cyclin-dependent kinase 19, sequence (Q9BWU1 whole entry): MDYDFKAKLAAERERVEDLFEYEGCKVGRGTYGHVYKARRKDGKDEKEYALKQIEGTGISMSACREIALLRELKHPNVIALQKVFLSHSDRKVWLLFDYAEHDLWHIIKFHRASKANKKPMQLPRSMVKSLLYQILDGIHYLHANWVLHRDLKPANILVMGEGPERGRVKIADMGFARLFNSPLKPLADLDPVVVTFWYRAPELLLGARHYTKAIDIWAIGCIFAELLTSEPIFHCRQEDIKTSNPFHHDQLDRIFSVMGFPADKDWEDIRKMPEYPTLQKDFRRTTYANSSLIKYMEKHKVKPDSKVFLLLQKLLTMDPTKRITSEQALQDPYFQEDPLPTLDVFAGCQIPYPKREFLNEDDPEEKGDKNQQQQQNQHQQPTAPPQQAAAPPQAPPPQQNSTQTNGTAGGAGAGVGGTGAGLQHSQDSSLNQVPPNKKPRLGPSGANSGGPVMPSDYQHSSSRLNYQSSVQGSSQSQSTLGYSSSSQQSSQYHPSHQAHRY
Platelet-derived growth factor receptor alpha, sequence (P16234 whole entry): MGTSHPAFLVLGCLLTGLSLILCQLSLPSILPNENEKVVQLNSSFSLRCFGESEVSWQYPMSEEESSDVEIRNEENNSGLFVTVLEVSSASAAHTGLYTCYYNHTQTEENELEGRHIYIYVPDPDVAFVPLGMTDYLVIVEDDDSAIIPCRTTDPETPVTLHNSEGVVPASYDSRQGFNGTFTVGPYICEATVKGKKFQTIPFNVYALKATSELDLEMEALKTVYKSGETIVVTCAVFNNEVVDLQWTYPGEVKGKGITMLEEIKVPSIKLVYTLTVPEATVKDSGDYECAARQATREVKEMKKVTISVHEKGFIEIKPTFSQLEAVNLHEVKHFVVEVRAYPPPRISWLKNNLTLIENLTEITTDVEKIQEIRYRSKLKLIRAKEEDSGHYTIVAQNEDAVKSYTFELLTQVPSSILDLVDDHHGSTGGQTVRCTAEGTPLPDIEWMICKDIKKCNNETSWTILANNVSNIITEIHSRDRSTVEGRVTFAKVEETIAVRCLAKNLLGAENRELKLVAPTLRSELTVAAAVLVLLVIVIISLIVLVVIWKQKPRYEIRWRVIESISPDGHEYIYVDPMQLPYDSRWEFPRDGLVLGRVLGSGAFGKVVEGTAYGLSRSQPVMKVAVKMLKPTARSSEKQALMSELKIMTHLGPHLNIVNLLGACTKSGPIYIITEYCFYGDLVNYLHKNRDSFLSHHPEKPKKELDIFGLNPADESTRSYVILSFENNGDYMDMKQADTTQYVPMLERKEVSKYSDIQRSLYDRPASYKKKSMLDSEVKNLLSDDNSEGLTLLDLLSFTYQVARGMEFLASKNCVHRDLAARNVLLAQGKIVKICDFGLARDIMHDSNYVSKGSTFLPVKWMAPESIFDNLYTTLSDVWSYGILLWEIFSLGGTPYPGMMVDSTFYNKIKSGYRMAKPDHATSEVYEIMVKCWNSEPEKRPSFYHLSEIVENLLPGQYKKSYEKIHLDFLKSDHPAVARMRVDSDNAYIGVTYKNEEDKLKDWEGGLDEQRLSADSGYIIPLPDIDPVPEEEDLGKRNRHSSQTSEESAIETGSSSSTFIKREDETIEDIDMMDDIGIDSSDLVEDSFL
Calcium/calmodulin-dependent protein kinase type II subunit alpha, sequence (Q9UQM7 whole entry): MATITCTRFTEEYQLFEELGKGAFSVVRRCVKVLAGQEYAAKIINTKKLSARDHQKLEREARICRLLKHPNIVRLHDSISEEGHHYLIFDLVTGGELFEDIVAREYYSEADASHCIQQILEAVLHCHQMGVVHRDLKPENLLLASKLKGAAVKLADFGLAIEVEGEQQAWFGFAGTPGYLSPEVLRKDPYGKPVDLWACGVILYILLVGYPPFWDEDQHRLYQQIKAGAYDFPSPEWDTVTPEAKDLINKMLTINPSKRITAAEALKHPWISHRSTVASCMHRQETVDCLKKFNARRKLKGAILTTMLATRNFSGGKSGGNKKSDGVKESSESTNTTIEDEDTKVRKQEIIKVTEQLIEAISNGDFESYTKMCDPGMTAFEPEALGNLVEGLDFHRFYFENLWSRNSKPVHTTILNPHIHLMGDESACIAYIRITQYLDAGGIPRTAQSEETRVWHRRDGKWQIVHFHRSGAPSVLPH

Ki [1]: 20 µM (active)
Ki [2]: 31.6 µM (active)
Ki [3]: > 63.1 µM (inactive)
Ki [4]: 2 µM (active)
Ki [5]: 2 µM (active)
Ki [6]: 79.4 µM (active)
Ki [7]: 10 µM (active)
Ki [8]: 3.98 µM (active)
Ki [9]: 5.01 µM (active)
Ki [10]: 12.6 µM (active)
Ki [11]: 25.1 µM (active)
Ki [12]: 63.1 µM (active)
Ki [13]: 10 µM (active)
Ki [14]: 2 µM (active)
Ki [15]: 79.4 µM (active)
Ki [16]: 5.01 µM (active)
Ki [17]: 6.31 µM (active)
Ki [18]: 100 µM (active)
Ki [19]: 12.6 µM (active)
Ki [20]: 3.98 µM (active)
Ki [21]: 63.1 µM (active)
Ki [22]: 39.8 µM (active)
Ki [23]: 15.8 µM (active)
Ki (Activated CDC42 kinase 1): 39.8 µM (active)
Ki [24]: 31.6 µM (active)
Ki (Aurora kinase B): 1.58 µM (active)
Ki [25]: 25.1 µM (active)
Ki [26]: 2 µM (active)
Ki [27]: 39.8 µM (active)
Ki [28]: 63.1 µM (active)
Ki [29]: 50.1 µM (active)
Ki [30]: 12.6 µM (active)
Ki (Aurora kinase A): 7.94 µM (active)
Ki (LIM domain kinase 1): 12.6 µM (active)
Ki [31]: 100 µM (active)
Ki [32]: 0.794 µM (active)
Ki [34]: 3.16 µM (active)
Ki (Activin receptor type-1): 10 µM (active)
Ki [35]: 31.6 µM (active)
Ki [36]: 12.6 µM (active)
Ki [37]: 15.8 µM (active)
Ki [38]: 79.4 µM (active)
Ki [39]: > 100 µM (inactive)
Ki [40]: 12.6 µM (active)
Ki [41]: 25.1 µM (active)
Ki [42]: 20 µM (active)
Ki [43]: 39.8 µM (active)
Ki [44]: > 100 µM (inactive)
Ki [45]: 15.8 µM (active)
Ki [46]: 0.398 µM (active)
Structure (SMILES): Nc1ncnc2c1N=C(c1ccccc1)CCN2
Ki [33]: 7.94 µM (active)

Ki [47]: > 6.31 µM (inactive)
Ki (SRSF protein kinase 1): > 7.94 µM (inactive)
Ki [48]: 0.158 µM (active)
Ki [49]: > 10 µM (inactive)
Ki [2]: > 3.98 µM (inactive)
Ki [3]: > 1.58 µM (inactive)
Ki [50]: > 10 µM (inactive)
Ki [51]: > 3.98 µM (inactive)
Ki [52]: > 7.94 µM (inactive)
Ki [53]: > 7.94 µM (inactive)
Ki [9]: 1.26 µM (active)
Ki [12]: 0.316 µM (active)
Ki [54]: > 2.51 µM (inactive)
Ki [55]: > 5.01 µM (inactive)
Ki [16]: > 3.98 µM (inactive)
Ki [56]: > 7.94 µM (inactive)
Ki [21]: > 3.98 µM (inactive)
Ki [25]: > 0.501 µM (inactive)
Ki [57]: 3.16 µM (active)
Ki [27]: > 3.98 µM (inactive)
Ki [58]: > 1.58 µM (inactive)
Ki [34]: > 2 µM (inactive)
Ki [59]: > 5.01 µM (inactive)
Ki [60]: > 6.31 µM (inactive)
Ki [61]: > 7.94 µM (inactive)
Ki [62]: > 1.58 µM (inactive)
Ki [63]: > 10 µM (inactive)
Ki [64]: > 2.51 µM (inactive)
Ki [65]: > 3.16 µM (inactive)
Ki [66]: > 7.94 µM (inactive)
Ki [67]: > 1.58 µM (inactive)
Ki [44]: 0.2 µM (active)
Ki [68]: > 6.31 µM (inactive)
Ki [69]: 2.51 µM (active)
Ki [70]: > 7.94 µM (inactive)
Ki (Focal adhesion kinase 1): > 6.31 µM (inactive)
Structure (SMILES): Cc1cc(Nc2cc(N3CCN(C)CC3)nc(Sc3ccc(NC(=O)C4CC4)cc3)n2)[nH]n1 [TOZASERTIB]

IC50 [71]: 2.55 µM (active)
IC50 [72]: 2.55 µM (active)
Structure (SMILES): C=Cc1cnn(Cc2cccc3ccccc23)c(=O)c1C(C#N)c1ccccc1 (centres undefined)
